Measurements reported in US20250213593A1, “Use of Derivatives based on Sarsasapogenin Structure and Pharmaceutical Compositions thereof” (BEIJING PHYTOVENT PHARMACEUTICAL TECHNOLOGY CO., LTD., priority 2022, published 2025).
Where two headings read alike, the source gives them in different places.

Legend:
hippocampal neurons = assay: L-cysteine-induced neuronal excitotoxicity; format: cell-based, SD rats; details: compound 1 μM, 24 h before inducer
Experimental: Experimental and analytical method: before the experiment, a 24-well cell culture plate was pretreated with Poly-D-lysine and placed in a cell incubator at 37° C. and 5% CO2 overnight. SD rats, 18 days pregnant, were ordered, brains of fetal rats (E18-19) were dissected, and hippocampal neurons in the brains were subjected to primary culture in a neuronal medium using a 24-well plate, and then cultured by a serum-free medium. The hippocampal neurons were cultured in a cell incubator at 37° C., 5% CO2 for 19 days (DIV19), then added with a compound to be tested (a final concentration of 1 μM) and a positive control AP5 [(2R)-amino-5-phosphonopentanoic acid(phosphonatopentanoate)] (a final concentration of 100 μM), cultured for 24 h, and then added with L-Cystine (400 μM) and NaHCO3 (10 mM). After 18 h, Hoechst3342 (2.5 μg/ml) was added for cell staining. The cells were placed in the incubator and cultured for 15 min, and photographed using the high-content fluorescence microscope, wherein 6 random non-overlapping fields were photographed for each duplicate well, and the total number of neurons and the number of dead neurons were counted with software Image J. The obtained data was used to determine whether there was a difference between a drug treatment group and a control group.
Compound treatment: 32 small molecule compounds in Embodiment 1 to Embodiment 19A were diluted with DMSO to a 1 mM mother solution; and 1 μL of mother solution was added to 1 ml of culture solution per well in a 24-well plate to a final concentration of 1 μM, wherein a positive control compound was […] of AP5 (100 mM mother solution), and a negative control was 1 μl of DMSO.

[1] = tested on: human SHSY5Y neural tumor cells; assay: H2O2-induced oxidative damage of SHSY5Y cells (MTT); format: cell-based; details: 1 μM, pre-protected 24 h, 250 μM H2O2 24 h
[2] = tested on: Lepr gene mutant (DB) mice; assay: Blood glucose of DB mice; format: in vivo, mouse; details: 80 mpk by gavage once a day, from 8 to 20 weeks of age
Source text: • Experimental and analytical method: leptin receptor gene (OB-R) was also known as diabetes gene (db), leptin receptor (Lepr) is closely related to obesity, hypertension, diabetes, lipid metabolism disorders, etc. The courses of these diseases are greatly influenced by the genetic background. Topical insulin can not control the increase in blood glucose and gluconeogenesis levels in the liver. Gene editing technologies and embryo injection technologies were used to construct Lepr gene mutant mice. […] The blood glucose in each mouse of this strain began to rise sharply at 8 weeks of age, reaching 30 mmol/L, while the blood glucose of the normal background was only about 6 mmol/L. We started drug delivery from 8 weeks of age. Test small molecules were Embodiment 28, Embodiment 29 and Embodiment 30, all of which were at a dosage of 80 mpk, and delivered by gavage once a day.

[3] = tested on: Raji-Luc hematologic tumor cells in NOD-Scid immunodeficient mice; assay: NOD-Scid mice inoculated with hematologic tumor cells Raji-Luc; details: 100 mpk by gavage once a day
male SD rats, TBI model = assay: Acute traumatic brain injury (TBI) rat model; format: in vivo; details: 80 mpk once a day, 7 days; vs solvent control (P<0.05)
Experimental: • Experimental and analytical method: male SD rats were used in this experiment to establish a TBI rat model, which was randomly divided into: a solvent control group (8 rats), a test product Embodiment 13B (80 mpk, 10 rats), and a test product Embodiment 26 (80 mpk, 9 rats). After TBI surgery, drugs were administered by gavage once a day for 7 consecutive days.

[4] = tested on: U937 (histiocytic lymphoma cells); assay: Cell proliferation assay, U937; format: cell-based; details: Homo sapiens, U-937, 72 h
Experimental: (§1) • Experimental and analytical method: cells were inoculated into a 96-well cell culture plate with a lid at a maximum concentration of 10 μM for a test compound, and diluted in three folds to a series of test concentrations, and cells were incubated at 37° C., 5% CO2 for 72 h. The concentration of DMSO was 0.5%, 100 μl of medium was taken from each well. 100 μl of reagent (Celltitute Glo Assay Kit) was added to each well, and a flat plate was shaken on a plate shaker (protected from light) for 2 min. A culture plate was incubated (protected from light) at room temperature for 30 min. Chemiluminescence values were recorded by a multi-plate plate reader, and the experimental results were as follows:
(§2) U937 (histiocytic lymphoma cells), OCI-LY3 (human diffuse large B-cell lymphoma cells), U2932 (human diffuse large B-cell lymphoma cells), and HT cells (human mixed lymphoma cells) were analyzed in the table for experimental analysis of cell proliferation.

[5] = tested on: OCI-LY3 (human diffuse large B-cell lymphoma cells); assay: Cell proliferation assay, OCI-LY3; format: cell-based; details: for IC50: Homo sapiens, OCI-Ly3, 72 h
Experimental: as §1, §2

[6] = tested on: U2932 (human diffuse large B-cell lymphoma cells); assay: Cell proliferation assay, U2932; format: cell-based; details: U2932, 72 h
Experimental: as §1, §2

[7] = tested on: HT cells (human mixed lymphoma cells); assay: Cell proliferation assay, HT; format: cell-based
Experimental: as §1, §2

ICR mice = assay: Sleep of mice at subthreshold hypnotic dosage of sodium pentobarbital; format: in vivo, mouse; details: Diazepam 1 mg/kg; vs blank control
Experimental: After adaptive feeding of mice, 50 qualified animals were selected according to their body weights and divided into 5 groups by Excel complete randomization: a blank control group, a positive control group (Diazepam), and high-, medium- and low-dosage groups of test product, with 10 animals in each group. Animals in each group should be administrated with drug solutions and vehicles. After 1 h of administration, the animals in each group were intraperitoneally injected with a maximum subthreshold dosage of sodium pentobarbital (firstly, a pre-experiment was conducted to determine a maximum subthreshold hypnotic dosage of sodium pentobarbital).

[8] = tested on: primary cultured neurons in rats (cerebral cortex); assay: Oxygen glucose deprivation (OGD) injury of primary cultured rat neurons; format: cell-based
Source text: Experimental and analytical method: rats, 15 days pregnant, were ordered, brains of fetal rats (E15-16) were dissected, and neurons in the cerebral cortex were subjected to primary culture in a neuronal medium for 14 days (DIV 14) using 48-well plates, followed by an OGD experiment. During the OGD experiment, a neuronal culture solution was replaced by a glucose- and oxygen-free culture solution (95% N2/5% CO2 balance), and the neurons were subjected to OGD treatment in an OGD chamber. Then, the oxygen- and glucose-free culture medium was replaced by a normal neuronal culture solution, which was then cultured in a 95% Air/5% CO2 incubator for 24 h for neuronal activity analysis. By staining with Hoechst 33342 and Propidium iodide, a high-content fluorescence microscope was used for photographing, wherein 20 random non-overlapping visual fields were photographed per duplicate well, and the total number of neurons and the number of dead neurons were counted by software (Thermo Scientific™, HCS Studio Cell Analysis Software). […]

Structure (SMILES): C[C@H]1CC[C@@]2(OC1)O[C@H]1C[C@H]3[C@@H]4CC[C@@H]5CC(NC(=O)C6CCN(C)CC6)CC[C@]5(C)[C@H]4CC[C@]3(C)[C@H]1[C@@H]2C (stereo partly drawn) [Embodiment 2]
- protective effects on L-Cystine (400 μM)-induced neuronal excitotoxicity (hippocampal neurons): protective effects
- protection of H2O2-induced neural tumor cell damages [1]: significantly protected

Structure (SMILES): CCN1CCC(N2CCN(C(=O)CC(=O)NC3CC[C@]4(C)C5CC[C@]6(C)[C@@H]7[C@H](C[C@H]6[C@@H]5CC[C@@H]4C3)O[C@]3(CC[C@H](C)CO3)[C@H]7C)CC2)CC1 (stereo partly drawn) [Embodiment 29]
- blood glucose [2]: certain blood glucose-reducing effects

Structure (SMILES): C[C@H]1CC[C@@]2(OC1)O[C@H]1C[C@H]3[C@@H]4CC[C@@H]5CC(NC(=O)CC(=O)N6CCCN(CCN(C)C)CC6)CC[C@]5(C)C4CC[C@]3(C)[C@H]1[C@@H]2C (stereo partly drawn) [Embodiment 39]
- tumor killing effect (in-vivo fluorescence intensity) [3]: relatively good tumor killing effects

Structure (SMILES): C[C@H]1CC[C@@]2(OC1)O[C@H]1C[C@H]3[C@@H]4CC[C@@H]5CC(NC(=O)CC(=O)N6CCN(C7CCN(C)CC7)CC6)CC[C@]5(C)C4CC[C@]3(C)[C@H]1[C@@H]2C (stereo partly drawn) [Embodiment 26]
- early brain apoptosis rates (male SD rats, TBI model): significantly lower
- total apoptosis rates (male SD rats, TBI model): significantly lower

Structure (SMILES): C[C@H]1CC[C@@]2(OC1)O[C@H]1C[C@H]3[C@@H]4CC[C@@H]5CC(NC(=O)CC(=O)N6CCN(CCn7ccnc7)CC6)CC[C@]5(C)C4CC[C@]3(C)[C@H]1[C@@H]2C (stereo partly drawn) [Embodiment 40]
- tumor killing effect (in-vivo fluorescence intensity) [3]: relatively good tumor killing effects

Structure (SMILES): C[C@H]1CC[C@@]2(OC1)O[C@H]1C[C@H]3[C@@H]4CC[C@@H]5CC(NC(=O)CCN6CCN(CCN(C)C)CC6)CC[C@]5(C)[C@H]4CC[C@]3(C)[C@H]1[C@@H]2C (stereo partly drawn) [Embodiment 13]
- IC50 ([4]; low sugar, read-out: U937 (IC50, uM) Low sugar): 2.28 µM
- IC50 ([4]; normal sugar, read-out: U937 (IC50, uM) Normal sugar): 4.04 µM
- IC50 [5]: 4400 nM
- protective effects on L-Cystine (400 μM)-induced neuronal excitotoxicity (hippocampal neurons): protective effects
- IC50 [6]: 1190 nM
- protection of H2O2-induced neural tumor cell damages [1]: significantly protected

Structure (SMILES): C[C@H]1CC[C@@]2(OC1)O[C@H]1C[C@H]3[C@@H]4CC[C@@H]5C[C@@H](NC(=O)CC(=O)N6CCN(CCN(C)C)CC6)CC[C@]5(C)C4CC[C@]3(C)[C@H]1[C@@H]2C (stereo partly drawn) [Embodiment 13A]
- IC50 ([7]; Homo sapiens, HT, 72 h): 1510 nM
- inhibitory effect on the proliferation of HT cells (comparison in words) ([7]; among compounds of Table 13): best inhibitory effect
- IC50 [5]: 1780 nM
- inhibitory effect on the proliferation of OCI-LY3 cell line (comparison in words) ([5]; among compounds of Table 13): best inhibitory effect
- IC50 [6]: 430 nM

Structure (SMILES): COC(=O)N1CCN(C(=O)CC(=O)NC2CC[C@]3(C)C4CC[C@]5(C)[C@@H]6[C@H](C[C@H]5[C@@H]4CC[C@@H]3C2)O[C@]2(CC[C@H](C)CO2)[C@H]6C)CC1 (stereo partly drawn) [Embodiment 28]
- blood glucose [2]: certain blood glucose-reducing effects

Structure (SMILES): C[C@H]1CC[C@@]2(OC1)O[C@H]1C[C@H]3[C@@H]4CC[C@@H]5CC(NC(=O)CC(=O)N6CCC(N7CCN(CC#N)CC7)CC6)CC[C@]5(C)C4CC[C@]3(C)[C@H]1[C@@H]2C (stereo partly drawn) [Embodiment 30]
- blood glucose [2]: best blood glucose-reducing effect and could reach the level of normal background mice

Structure (SMILES): CN1C(=O)CN=C(c2ccccc2)c2cc(Cl)ccc21 [Diazepam, reference compound]
- sleep latency (ICR mice): significantly shortened
- sleep time (ICR mice): significantly prolonged

Structure (SMILES): O=C1NCCc2c(OCCCCN3CCCCC3)cccc21 [DPQ]
- protective effect on neuronal damages [8]: significant protective effect
- proportion of dead cells ([8]; without OGD 10.32%, DMSO negative control 52.31%): 22.22%
